# Experimental data published in patent US10258633B2, “Treatment of fibrosis using FXR ligands” (Intercept Pharmaceuticals, Inc., priority 2004, dated 2019).
# Legend:
# [1] = test system: hepatic stellate cells (HSC); assay: HSC proliferation assay ([3H]-thymidine incorporation, cell counting); assay type: cell-based, rat
# BDL rats = assay: Liver fibrosis in bile duct ligated (BDL) rats; assay type: in vivo, rat; settings: 1 and 3 mg/kg/day by oral route
# Protocol: BDL is a model of chronic cholestasis. In this model, however, progressive liver fibrosis leads to the development of cirrhosis 3-4 weeks after ligation and it is therefore also used as a model of liver fibrosis (Kountouras et al., Br. J. Exp. Pathol., 65: 305-311, 1984). Because this model allows us to test the effect of anti-fibrotic remedies, we administered rats […] with 6ECDCA at the dose of 1 and 3 mg/kg per os per day for 2 weeks. The protocol's study was approved by the Animal Study Committee of the University of Perugia. Hepatic fibrosis was induced in 8-9 weeks old male Wistar rats (Charles River, Monza, Italy) by BDL. BDL was performed as originally described by Kountouras et al. (Br. J. Exp. Pathol. 65: 305-311; 1984). One week after BDL, rats were randomized to receive one of the following treatments, placebo (subcutaneous injection of 100 μL PBS) or 6ECDCA at the doses 1 and 3 mg/kg/day by oral route. Animals were then followed for 3 weeks.
# At the end of the study surviving rats were sacrificed under pentobarbital sodium anesthesia (50 mg/kg i.p) and terminally bled via cardiac puncture. The blood was centrifuged at 7250 g for 20 minutes at 4° C.; the resultant serum was stored at −20° C. until analysis (a maximum of 2 weeks). At the time of death, the bile duct ligature was confirmed to be intact with proximal dilatation of the common bile duct. After weight determination, specimens of livers were snap frozen in liquid nitrogen and stored at −70° C. for subsequent analysis. For histologic examination portions of the right and left liver lobes (10-15 mg/each) from each animal were fixed in 10% formalin, embedded in paraffin, sectioned, and stained with hematoxylin and eosin or Sirius red. For Sirius red staining, the sections were incubated for 30 minutes in 0.1% Sirius red F3B (Sigma Chemical Co.) containing saturated picric acid and 0.1% Fast Green. After rinsing twice with distilled water, sections were briefly dehydrated with 70% ethanol and coverslipped. Collagen surface density from liver samples was quantified using a computerized image analysis system as described previously (Image Acquisition System Ver. 005, Delta Sistemi, Rome, Italy). The surface density of collagen in blinded specimens was measured at a video screen display magnification according to the method described by Rockey and Chung (Rockey, D. C., Chung, J. J. J. Clin. Invest. 98: 1381-1388, 1996) and expressed as a percent (the ratio of collagen surface area per total analyzed field surface). The average of the score taken from 10 random fields was used to generate a single score for each animal's liver.
# [2] = test system: hepatic stellate cells (HSC); assay: Quantitative RT-PCR of FXR target genes (SHP, BSEP, NTCP, CYP7A1) in HSC
# FXR = settings: cell-free assay or cell-based transactivation assay using a human or rat FXR; cited from earlier work
# [3] = test system: hepatic stellate cells (HSC); assay: Type I collagen α1 mRNA expression in HSCs by RT-PCR, quantitative RT-PCR and Northern blot; assay type: cell-based, rat; settings: confirmed by Northern blot
# Protocol: Primers: Rat SHP: [NT] (SEQ ID NO: 1) and [NT] (SEQ ID NO: 2); Rat FXR: [NT] (SEQ ID NO: 3) and [NT] […] (SEQ ID NO: 5) and [NT] (SEQ ID NO: 6); Rat c-Jun: [NT] (SEQ ID NO: 7) and 5' [NT] 3 (SEQ ID NO: 8)'; Rat JunD: [NT] (SEQ ID NO: 9) and [NT] […] (SEQ ID NO: 12). Levels of Collagen I alpha I were determined by Northern blot analyses of total RNA samples prepared from primary hepatic stellate cells (HSC), T6 and HepG2 cell lines. For this purpose, 10 μg total RNA was resolved by gel electrophoresis (1% agarose containing 0.98 M formaldehyde). Immediately after electrophoresis the RNA was transferred to a positively charged Nylon membrane (Amersham Life Sciences crop.). The transferred RNA was cross-linked to the membrane by UV light. The membrane was prehybridized for 4 hours in 6×SSC and 2% SDS and subsequently hybridized at 65° C. for 20 h with 32^P-labeled probes for collagen I alpha I or GAPDH (as internal control). Hybridized membranes were washed at a final stringency of 1×SSC, 1.0% SDS at 65° C. and exposed to Kodak AR-2 film at -80° C. The data are expressed relative to the internal GAPDH.
compound,measurement,setting,value
CC[C@H]1[C@@H](O)[C@@H]2[C@H](CC[C@]3(C)[C@@H]([C@H](C)CCC(=O)O)CC[C@@H]23)[C@@]2(C)CC[C@@H](O)C[C@@H]12 [6ECDCA],"HSC proliferation induced by thrombin, PDGF and TGFβ1",[1]; [3H]-thymidine incorporation,[…]
same,liver collagen deposition by scoring of Sirius-red staining,BDL rats,significant reduction
same,liver hydroxyproline content,BDL rats,significant reduction
same,liver α1 mRNA by RT-PCR,BDL rats,significant reduction
same,"reduction in liver collagen content, quantitative analysis of Sirius Red stained collagen",BDL rats,62%
same,increase of BSEP mRNA,[2]; 6ECDCA 1 μM,2 fold
same,increase of SHP mRNA,[2]; 6ECDCA 1 μM,2 fold
same,expression of type I collagen (α1 mRNA),[3]; 1 μM,reduces
"C[C@H](CCC(=O)O)[C@H]1CC[C@H]2[C@@H]3[C@H](O)C[C@@H]4C[C@H](O)CC[C@]4(C)[C@H]3CC[C@]12C [CDCA, chenodeoxycholic acid, reference compound]",increase of BSEP mRNA,[2]; CDCA 20 μM,2 fold
same,increase of SHP mRNA,[2]; CDCA 20 μM,2 fold
same,expression of type I collagen (α1 mRNA),[3]; 20 μM,reduces
CC(C)c1onc(-c2c(Cl)cccc2Cl)c1COc1ccc(/C=C/c2cccc(C(=O)O)c2)c(Cl)c1 [GW4064],expression of type I collagen (α1 mRNA),[3]; 100 μM,reduces
